{"source": "patent US20040063806A1", "about": "“Antimicrobial polyalphaolefin composition” (priority 2000, published 2004)", "origin": "cited, not measured here", "key": {"Actinomyces naeslundii": {"system": "Actinomyces naeslundii", "settings": "origin A, medium NA"}, "Moraxella glucidolytica": {"system": "Moraxella glucidolytica", "settings": "origin A, medium NA"}, "Candida utilis": {"system": "Candida utilis", "settings": "origin A, medium SMA"}, "Haemophilius influenca": {"system": "Haemophilius influenca", "settings": "Haemophilius influenca ATCC 33391, medium B-A"}, "Candida paracrusei": {"system": "Candida paracrusei", "settings": "origin A, medium SMA"}, "Micrococcus luteus": {"system": "Micrococcus luteus", "settings": "Micrococcus luteus ATCC 7468, medium M-H"}, "Clostridium sporogenes": {"system": "Clostridium sporogenes", "settings": "origin A, medium EA"}, "Corynebacterium xerosis": {"system": "Corynebacterium xerosis", "settings": "Corynebacterium xerosis ATCC 373, medium M-H"}, "Trichophyton rubrum": {"system": "Trichophyton rubrum", "settings": "origin A, medium SMA"}, "Sarcina urea": {"system": "Sarcina urea", "settings": "Sarcina urea ATCC 6473, medium BHI-A"}, "Vibrio cholerae": {"system": "Vibrio cholerae", "settings": "origin A, medium NA"}, "Actinomyces israelii": {"system": "Actinomyces israelii", "settings": "Actinomyces israelii NCTC 8047, medium NA"}, "Salmonella paratyphi A": {"system": "Salmonella paratyphi A", "settings": "Salmonella paratyphi A NCTC 5322, medium NA"}, "Moraxella lwolffii": {"system": "Moraxella lwolffii", "settings": "origin A, medium NA"}, "Candida stellatoidae": {"system": "Candida stellatoidae", "settings": "origin A, medium SMA"}, "Clostridium botulinum": {"system": "Clostridium botulinum", "settings": "Clostridium botulinum NCTC 3805, medium EA"}, "Salmonella typhimurium": {"system": "Salmonella typhimurium", "settings": "Salmonella typhimurium NCTC 5710, medium NA"}, "Neisseria catarrhalis": {"system": "Neisseria catarrhalis", "settings": "Neisseria catarrhalis NCTC 3622, medium BA"}, "Proteus mirabilis": {"system": "Proteus mirabilis", "settings": "Proteus mirabilis ATCC 14153, medium M-H"}}, "note": "Like-named read-outs stand apart in the source and are kept apart here."}
{"compound": "Oc1cc(Cl)ccc1Oc1ccc(Cl)cc1Cl", "note": "[IRGAGUARD B 1000, 2,4,4′-trichloro-2′-hydroxydiphenyl ether]", "values": [{"measurement": "Microbiostatic effect", "setting": "Actinomyces naeslundii", "result": 1.0, "unit": "ppm"}, {"measurement": "Microbiostatic effect", "setting": "Moraxella glucidolytica", "result": 0.3, "unit": "ppm"}, {"measurement": "Microbiostatic effect", "setting": "Candida utilis", "result": 33, "unit": "ppm"}, {"measurement": "Microbiostatic effect", "setting": "Haemophilius influenca", "result": 2.0, "unit": "ppm"}, {"measurement": "Microbiostatic effect", "setting": "Candida paracrusei", "result": 4, "unit": "ppm"}, {"measurement": "Microbiostatic effect", "setting": "Micrococcus luteus", "result": 4.0, "unit": "ppm"}, {"measurement": "Microbiostatic effect", "setting": "Clostridium sporogenes", "result": 10.0, "unit": "ppm"}, {"measurement": "Microbiostatic effect", "setting": "Corynebacterium xerosis", "result": 5.0, "unit": "ppm"}, {"measurement": "Microbiostatic effect", "setting": "Trichophyton rubrum", "result": 10, "unit": "ppm"}, {"measurement": "Microbiostatic effect", "setting": "Sarcina urea", "result": 0.1, "unit": "ppm"}, {"measurement": "Microbiostatic effect", "setting": "Vibrio cholerae", "result": 10.0, "unit": "ppm"}, {"measurement": "Microbiostatic effect", "setting": "Actinomyces israelii", "result": 1.0, "unit": "ppm"}, {"measurement": "Microbiostatic effect", "setting": "Salmonella paratyphi A", "result": 0.3, "unit": "ppm"}, {"measurement": "Microbiostatic effect", "setting": "Moraxella lwolffii", "result": 0.1, "unit": "ppm"}, {"measurement": "Microbiostatic effect", "setting": "Candida stellatoidae", "result": 10, "unit": "ppm"}, {"measurement": "Microbiostatic effect", "setting": "Candida albicans; Candida albicans ATCC 10259, medium M", "result": 3, "unit": "ppm"}, {"measurement": "Microbiostatic effect", "setting": "Candida albicans; Candida albicans, origin A, medium SMA", "result": 10, "unit": "ppm"}, {"measurement": "Microbiostatic effect", "setting": "Clostridium botulinum", "result": 3.0, "unit": "ppm"}, {"measurement": "Microbiostatic effect", "setting": "Salmonella typhimurium", "result": 0.3, "unit": "ppm"}, {"measurement": "Microbiostatic effect", "setting": "Neisseria catarrhalis", "result": 33.0, "unit": "ppm"}, {"measurement": "Microbiostatic effect", "setting": "Proteus mirabilis", "result": 0.5, "unit": "ppm"}]}
